Literature values, collected in patent publication US10232018B2, “ACTH for treatment of acute respiratory distress syndrome” (MALLINCKRODT ARD IP LIMITED, priority 2013, dated 2019).

Experiments:
[1] = Baumann and Felber, 1976

Row | Substance | duration of action compared with 1-24 [1] | partial agonist activity in adrenal stimulation assays in comparison to ACTH1-24 as control (adrenal stimulation) [%]
1 | human 1-39: human ACTH 1-39 (SYSMEHFRWGKPVGKKRRPVKVYPNGAEDESAEAFPLEF; Corticotropin; UniProt P01189 138-176, looked up) | longer duration of action | 
2 | ACTH1-23: ACTH fragment 1-23, partial agonist in Hofmann et al. (1970) (SYSMEHFRWGKPVGKKRRPVKVY; Corticotropin; UniProt P01189 138-160, looked up, fragment) |  | 91
